Assay results as given in US6156700A, “3-(1,2-Benzisothiazol- and isoxazol-5-yl)-2,4(1H,3H)-pyrimidinedione or thione and 3-(1,2-benzisothiazol- and isoxazol-5-yl)-4(3H)-pyrimidinone or thione herbicidal agents” (American Cyanmid Company, priority 1998, dated 2000).

Experiments:
[1] = system: Barnyardgrass, Echinochloa crus-galli; assay: Preemergence herbicidal evaluation, ECHCG; format: in vivo, (L.) Beau; settings: 0.2500 kg/ha
Text: (§1) Results of herbicide evaluation are expressed on a rating scale (0-9). The scale is based upon a visual observation of plant stand, vigor, malformation, size, chlorosis and overall plant appearance as compared with a control.
(§2) The preemergence herbicidal activity of the test compounds of the present invention is exemplified by the following tests in which the seeds of a variety of monocotyledonous and dicotyledonous plants are separately mixed with potting soil and planted on top of approximately one inch of soil in separate pint cups. After planting, the cups are sprayed with the selected aqueous acetone solution containing test compound in sufficient quantity to provide the equivalent of about 0.0156 to 0.500 kg per hectare of test compound per cup. The treated cups are then placed on greenhouse benches, watered and cared for in accordance with conventional greenhouse procedures. From four to five weeks after treatment, the tests are terminated and each cup is examined and rated according to the rating system provided in Example 185.
(§3) The compounds evaluated are reported by compound number given in Example 185.

Galium, Galium aparine = assay: Postemergence herbicidal evaluation, GALAP; format: in vivo
In short: (§4)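 Roughly two-week-old seedlings sprayed with compound dispersed in 50/50 acetone/water plus 0.5% TWEEN 20, delivering about 0.0157 to 0.500 kg active per hectare through a nozzle at 40 psi. Kept in greenhouse; visually rated 4–5 weeks after treatment on a 0–9 scale (stand, vigor, malformation, size, chlorosis) versus control, replicate tests averaged.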

MOOVA Monochoria = assay: Preemergence weed control, flooded paddy (Table III); format: in vivo, Monochoria vaginalis; design: scale not given here
Procedure: (§5) Preemergence herbicidal activity under flooded paddy conditions is determined as follows: plant seeds or propagating organs are planted in the top 0.5 cm of silt loam soil in 32 oz. plastic containers with a diameter of 10.5 cm and no drainage holes. Water is added to these containers and maintained at 1.5 to 3 cm above the soil surface for the duration of the experiment. The test compounds are applied as aqueous/acetone mixtures 50/50 v/v pipetted directly into the flood water to give the equivalent of about 0.0313 to 0.500 kg/ha of active ingredient. The treated containers are placed on greenhouse benches and cared for in accordance with conventional greenhouse procedures. Three to four weeks after treatment, the test is terminated and each container is examined and herbicidal effect rated according to the rating system provided in Example 185. The compounds evaluated are reported by compound number given in Example 185.

[2] = system: Velvetleaf, Abutilon theophrasti; assay: Preemergence herbicidal evaluation, ABUTH; format: in vivo, Medic.; settings: 0.2500 kg/ha
Text: as §1, §2, §3

CYPIR Rice Flatsedge [3] = assay: Preemergence weed control, flooded paddy (Table III); format: in vivo, Cyperus iria; design: scale not given here
Procedure: as §5

[4] = system: Sicklepod, Cassia obtusifolia; assay: Postemergence herbicidal evaluation, CASOB; format: in vivo, L.
In short: as §4

[5] = system: Wheat, Winter, cv Riband, Triticum aestivum; assay: Preemergence herbicidal evaluation, TRZAWR; format: in vivo; settings: 0.2500 kg/ha
Text: as §1, §2, §3

[6] = system: Rice, Tebonnet, Oryza sativa; assay: Postemergence herbicidal evaluation, ORYSAT; format: in vivo, (L.) Tebonnet
In short: as §4

Corn, Field, Zea mays [7] = assay: Postemergence herbicidal evaluation, ZEAMX; format: in vivo, L.
In short: as §4

[8] = system: Foxtail, Green, Setaria viridis; assay: Preemergence herbicidal evaluation, SETVI; format: in vivo, (L.) Beau; settings: 0.2500 kg/ha
Text: as §1, §2, §3

[9] = system: Rice, Tebonnet, Oryza sativa; assay: Preemergence herbicidal evaluation, ORYSAT; format: in vivo, (L.) Tebonnet; settings: 0.2500 kg/ha
Text: as §1, §2, §3

[10] = system: Barnyardgrass, Echinochloa crus-galli; assay: Postemergence herbicidal evaluation, ECHCG; format: in vivo, (L.) Beau
In short: as §4

CYPIR Rice Flatsedge [11] = assay: Postemergence weed control, flooded paddy (Table IV); format: in vivo, Cyperus iria; design: scale not given here
Text: (§6) Plastic containers containing weeds which are 3 to 5 cm tall and rice seedlings at the 1.5 to 2.5 leaf stage are flooded with water. The water is maintained at 1.5 to 3 cm above the soil surface for the duration of the experiment. Test compounds are applied as aqueous/acetone mixtures 50/50 v/v directly into the flood water to provide the equivalent of about 0.0313 to 0.500 kg/ha of active ingredient. The treated containers are placed on greenhouse benches and cared for in accordance with conventional greenhouse procedures. Three to four weeks after treatment, the test is terminated and each container is examined and herbicidal effect rated according to the rating system provided in Example 185. The compounds evaluated are reported by compound number given in Example 185.

ORYSAT Rice, Tebonnet = assay: Rice tolerance, flooded paddy (Table IV); format: in vivo, Oryza sativa; design: scale not given here; settings: crop tolerance
Text: as §6

Corn, Field, Zea mays [12] = assay: Preemergence herbicidal evaluation, ZEAMX; format: in vivo, L.; settings: 0.2500 kg/ha
Text: as §1, §2, §3

[13] = system: Ragweed, Common, Ambrosia artemisifolia; assay: Preemergence herbicidal evaluation, AMBEL; format: in vivo, L.; settings: 0.2500 kg/ha
Text: as §1, §2, §3

[14] = system: ECHORC Watergrass (Calif.); assay: Preemergence weed control, flooded paddy (Table III); format: in vivo, Echinochloa oryzoides; design: scale not given here
Procedure: as §5

[15] = system: Foxtail, Green, Setaria viridis; assay: Postemergence herbicidal evaluation, SETVI; format: in vivo, (L.) Beau
In short: as §4

[16] = system: ECHORC Watergrass (Calif.); assay: Postemergence weed control, flooded paddy (Table IV); format: in vivo, Echinochloa oryzoides; design: scale not given here
Text: as §6

[17] = system: Ragweed, Common, Ambrosia artemisifolia; assay: Postemergence herbicidal evaluation, AMBEL; format: in vivo, L.
In short: as §4

[18] = system: Wheat, Winter, cv Riband, Triticum aestivum; assay: Postemergence herbicidal evaluation, TRZAWR; format: in vivo
In short: as §4

COc1ccc(C)cc1-c1nsc2ccc(-n3c(=O)cc(C(F)(F)F)n(C)c3=O)cc12 [Compound 1, 3-[3-(6-Methoxy-m-tolyl)-1,2-benzisothiazol-5-yl]-1-methyl-6-(trifluoromethyl)-2,4(1H,3H)-pyrimidinedione]
7.0: herbicide rating (0-9) (Corn, Field, Zea mays [7]; 0.2500 kg/ha) | herbicide rating (0-9) ([10]; 0.0630 kg/ha) | herbicidal effect rating (ORYSAT Rice, Tebonnet; 0.5000 kg/ha)
9.0: herbicide rating (0-9) [1] | herbicide rating (0-9) (Galium, Galium aparine; 0.0630 kg/ha) | herbicide rating (0-9) (Galium, Galium aparine; 0.2500 kg/ha) | herbicidal effect rating (MOOVA Monochoria; 0.0313 kg/ha) | herbicidal effect rating (MOOVA Monochoria; 0.0625 kg/ha) | herbicidal effect rating (MOOVA Monochoria; 0.1250 kg/ha) | herbicidal effect rating (MOOVA Monochoria; 0.2500 kg/ha) | herbicidal effect rating (MOOVA Monochoria; 0.5000 kg/ha) | herbicide rating (0-9) [2] | herbicidal effect rating (CYPIR Rice Flatsedge [3]; 0.0313 kg/ha) | herbicidal effect rating (CYPIR Rice Flatsedge [3]; 0.0625 kg/ha) | herbicidal effect rating (CYPIR Rice Flatsedge [3]; 0.1250 kg/ha) | herbicidal effect rating (CYPIR Rice Flatsedge [3]; 0.2500 kg/ha) | herbicidal effect rating (CYPIR Rice Flatsedge [3]; 0.5000 kg/ha) | herbicide rating (0-9) ([4]; 0.0630 kg/ha) | herbicide rating (0-9) [8] | herbicide rating (0-9) ([10]; 0.2500 kg/ha) | herbicidal effect rating (CYPIR Rice Flatsedge [11]; 0.1250 kg/ha) | herbicidal effect rating (CYPIR Rice Flatsedge [11]; 0.2500 kg/ha) | herbicidal effect rating (CYPIR Rice Flatsedge [11]; 0.5000 kg/ha) | herbicide rating (0-9) [13] | herbicidal effect rating ([14]; 0.0313 kg/ha) | herbicidal effect rating ([14]; 0.0625 kg/ha) | herbicidal effect rating ([14]; 0.1250 kg/ha) | herbicidal effect rating ([14]; 0.2500 kg/ha) | herbicidal effect rating ([14]; 0.5000 kg/ha) | herbicide rating (0-9) ([15]; 0.0630 kg/ha) | herbicide rating (0-9) ([15]; 0.2500 kg/ha) | herbicidal effect rating ([16]; 0.5000 kg/ha) | herbicide rating (0-9) ([17]; 0.0630 kg/ha) | herbicide rating (0-9) ([17]; 0.2500 kg/ha)
7.5: herbicide rating (0-9) [9]
5.3: herbicide rating (0-9) ([18]; 0.0630 kg/ha)
5.0: herbicide rating (0-9) ([6]; 0.2500 kg/ha)
4.0: herbicidal effect rating (ORYSAT Rice, Tebonnet; 0.1250 kg/ha)
6.5: herbicide rating (0-9) (Corn, Field, Zea mays [12]) | herbicidal effect rating ([16]; 0.1250 kg/ha)
5.5: herbicide rating (0-9) ([18]; 0.2500 kg/ha)
8.0: herbicide rating (0-9) ([4]; 0.2500 kg/ha) | herbicidal effect rating ([16]; 0.2500 kg/ha)
4.3: herbicide rating (0-9) ([6]; 0.0630 kg/ha)
6.0: herbicide rating (0-9) [5] | herbicide rating (0-9) (Corn, Field, Zea mays [7]; 0.0630 kg/ha) | herbicidal effect rating (ORYSAT Rice, Tebonnet; 0.2500 kg/ha)
